Data published in patent publication US20250108023A1, “Products for Masking Bitterness” (The Third People's Hospital of Henan Province, priority 2023, published 2025).
Like-named read-outs stand apart in the source and are kept apart here.

How the values were obtained:
[1] = Oral spray bitterness masking taste test by volunteers with Coptis chinensis standard bitter solution; type: in vivo, healthy volunteers; parameters: key to bitterness value after drug: bitterness value 0.5–5.5; 1 = none, 5 = unbearable; key to Reduction of bitterness: drop in bitterness value (0.5–5.5 scale) from initial; details: for Duration >: retention time until bitterness rises; for bitterness value after drug: initial bitterness 4.0, 16 cases; for inhibition in vivo at 0.2 %: Homo sapiens, read-out: Reduction range
Experimental: Purpose of the experiment: it is to screen out compounds that take effect within 5 seconds, last for 30-120 seconds, and it is expected, by using such kind of compounds, the taste of the drug cannot be felt during the duration (30-120 seconds) when taking the drug.
Principle of the experiment: simulate the process of taking medicine and using the taste masking agents, first spray about 0.5 ml of oral spray on the throat (3 times), and after it takes effect quickly, taste 10 ml of bitter standard solution to screen drugs that can be used in advance and can mask the bitter taste.
• 1: Volunteer screening. The research team strictly screened the recruited volunteers and finally selected healthy volunteers as subjects. They signed informed consent forms before the experiment; • 2: Standard bitterness sample preparation. The bitterness of the samples was divided into five levels, and each level was assigned a certain bitterness value range; • 3: The sensory standard was corrected by the oral taste evaluation method, that is, the sensory standard was corrected by comparing the taste evaluation of the volunteers with the established bitterness value of the reference sample group. Specific steps: when the volunteers are doing the oral tasting test, the reference solutions of various concentrations are placed in the tasting cups, and the volunteers hold one of the solutions in their mouths, time it, and rinse their mouths by using the solution so that the bitter taste perception area at the root and sides of the tongue can fully feel the bitter taste of the drug. […] Then dilute all the selected taste masking drugs, prepare the solution, take 10 ml and put it into the spray bottle, spray it into the mouth 3 times, stay for 5 seconds, drink 10 ml of standard bitterness solution, feel and record the bitterness value, keep the standard bitterness solution in the mouth until the bitterness rises, and record the retention time. • 5: Quality control. […] Since the experimental objects are biological samples and there are individual differences between different subjects, there may be individual outliers in the experimental test data. The Grubbs test method was used to exclude outliers in the data, and then the experimental data were plotted in tables and curves for data analysis.
It is necessary to process the experimental data. Specifically, the Grubbs test method was used to perform a circular test and elimination of outliers on the data, and a bilateral test was used to eliminate outliers in the oral test. Considering the characteristics of biological samples, the detection level was selected as 0.1 and the elimination level was selected as 0.05 in this experiment.
The experimental medicinal material processing method mentioned in the above technical scheme is as follows: Preparation of bitter standard solution, use 10 g of Coptis chinensis powder, add 100 ml of pure water above 90 degrees, stir, let stand for 20 minutes, take the supernatant for use, determine the standard bitterness of 4.0 degrees by oral tasting, dilute 5 times, determine the standard bitterness of 2.0 degrees, dilute 2.0 degrees again 5 times, determine the standard bitterness of 0.5 degrees. Compare with the bitterness scoring table, (level 1 means “no bitterness or almost no bitterness”, the bitterness value is 0.5˜1.5; level 2 means “slightly bitter”, the bitterness value is 1.5˜2.5; level 3 means “bitter but acceptable”, the bitterness value is 2.5˜3.5; level 4 means “very bitter, but still tolerable”, the bitterness value is 3.5˜4.5; level 5 means “unbearable bitterness”, the bitterness value is 4.5˜5.5). Adjust the judgment and cognition of bitterness.
The standard bitterness solution used in this experiment to verify the experimental effect is a 4.0 degree bitterness solution of Coptis chinensis prepared according to the above method.

[2] = Broad-spectrum taste masking test on decoctions of extremely bitter Chinese herbal medicine slices; type: in vivo, healthy volunteers; parameters: key: reduction in bitterness degrees on a 5-degree graduation scale; details: 0.1% taste masking agent in 40% ethanol
Experimental: According to the standard of decocting 100 ml of liquid from 10 g of dry Chinese herbal medicine slices (decoction method: use a stainless steel container, and keep for 20 minutes after boiling), from 300 commonly used Chinese herbal medicine slices, combined with the Chinese Pharmacopoeia, more than 20 Chinese herbal medicines with bitter or extremely bitter properties written in the pharmacopoeia were selected, including Bletilla striata, Cortex qin, Stephania tetrandra, Apricot kernel, Belamcanda chinensis, Angelica dahurica, Lotus seed heart, Toosendan fruit, Andrographis paniculata, Sophora flavescens, Coptis chinensis, Gentiana scabra, Forsythia suspensa, Sophora japonica, Phellodendron amurense, Scutellaria baicalensis, Platycodon grandiflorum, Notopterygium wilfordii, Saposhnikovia divaricata, Perilla frutescens, Zanthoxylum bungeana, Osmanthus fragrans, Sophora flavescens, and Chrysanthemum officinale, totally 24 kinds of Chinese herbal medicines.
Finally, through the 5-degree graduation method, 2 species with a bitterness higher than 3.5 (moderate bitterness) and 7 species with a bitterness higher than 5 degrees (highly bitter, extremely bitter, accompanied by nausea) were screened out, a total of 9 species (Angelica pubescens, Lotus Seed Heart, Toosendan, Andrographis paniculata, Sophora flavescens, Coptis chinensis, Gentiana scabra, Forsythia suspensa, Sophora japonica) are selected as bitterness representatives to participate in the bitterness masking experiment. (Note: The bitterness of Coptis chinensis slices can reach 5.2 after 20 minutes of water decoction. The reference standard solution is 90-degree water brewing Coptis chinensis powder, it is automatically cooled to obtain a solution with a bitter taste of 4.0. Because Coptis chinensis has been used as a standard bitter liquid, it is no longer used).
The experimental method is the same as the previous part.

[3] = 0.2% solution in 60% ethanol as oral spray, relative to original bitterness 4.0
[4] = 0.2% solution in 60% ethanol as oral spray
[5] = concentration 0.001% in 60% ethanol
[6] = concentration 0.005% in 60% ethanol
[7] = concentration 0.02% in 60% ethanol
[8] = concentration 0.10% in 60% ethanol
[9] = concentration 0.50% in 60% ethanol
[10] = Andrographis paniculata, original bitterness 5
[11] = Forsythia suspensa, original bitterness 3
[12] = Gentiana, original bitterness 5
[13] = Lotus seed heart, original bitterness 5
[14] = Sophora flavescens, original bitterness 5
[15] = Toulianzi, original bitterness 5

SMILES	Reduction of bitterness ([1]; 0.2% solution in 60% ethanol as oral spray, original bitterness average 4.0, average of 31 cases)	Reduction range [1, 3] [%]	Duration > [1, 4] [s]	bitterness value after drug [1, 5]	bitterness value after drug [1, 6]	bitterness value after drug [1, 7]	bitterness value after drug [1, 8]	bitterness value after drug [1, 9]	inhibition in vivo at 0.2 % [1, 3] [%]	Bitterness reduction value [2, 10]	Bitterness reduction value [2, 11]	Bitterness reduction value [2, 12]	Bitterness reduction value [2, 13]	Bitterness reduction value ([2]; Puhuo, original bitterness 5)	Bitterness reduction value [2, 14]	Bitterness reduction value [2, 15]	inhibition in vivo at 0.2 % ([1]; po) [%]
CC(C)[C@@H]1CC[C@@H](C)C[C@H]1OC(=O)CCC(=O)O [Menthyl succinate]	1.6	40.00	> 10	3.2	2.8	2.6	2.4	2.1									
O=CC=Cc1ccccc1 [Cinnamaldehyde, 3-phenyl-2-propenal]			> 50	3.5	2.6	1.5	1.1	1.2	72.5	4	1.7	4.2	2.3	4.2	2.3	3.5	
COc1cc(C(=O)O)ccc1O [Vanillic acid, 3-methoxy-4-hydroxybenzoic acid]			> 50						27.5								
C=CC(C)(O)CCC=C(C)C (centres unmarked) [Linalool, linalool]			> 30	3.5	2.5	2.1	1.9	1.9	52.5	0.8	2	1.2	1.6	2.5	0.5	1.1	
CC1CCC(C(C)C)C(=O)C1 (centres unmarked) [Menthone, 5-methyl-2-isopropylcyclohexanone]			> 30	2.5	2.1	1.4	1.2	1.1	70								
COc1ccc(CCN(C)CCCC(C#N)(c2ccc(OC)c(OC)c2)C(C)C)cc1OC (centres unmarked) [Verapamil, 5-((3,4-dimethoxyphenylethyl)methylamino)-2-(3,4-dimethoxyphenyl)-2-isopropylvaleronitrile, reference compound]																	0
CC(C)=CCCC(C)=CC=O [Citral, citral]			> 30	3.7	2.8	2.1	1.7	1.9	57.5	1.5	2.5	3.7	3.5	3.75	1.7	1.5	
CCCCC[C@H](O)CC(=O)CCc1ccc(O)c(OC)c1 [Gingerol, 6-gingerol]			> 20	4	2.4	2.1	1.8	1.8	55								
C=CCc1ccc(OC(C)=O)c(OC)c1 [Eugenol acetate]			> 60	3.8	3.2	2.3	1.6	1.4	60								
